# Reference: PubChem BioAssay (NCI)
#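 In this assay, cells in 96-well plates receive the compound at five concentrations for 48 hours. Endpoints are linearly interpolated between the surrounding concentrations. TGI is the concentration that stops growth completely.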
# Tests used:
# Experiment in all cases: growth of human tumour cells (NCI), 48 h
# TK-10 renal = test system: TK-10 renal
# HCT-116 colon = test system: HCT-116 colon
# HOP-62 NSCLC = test system: HOP-62 NSCLC
# UACC-62 melanoma = test system: UACC-62 melanoma
# MDA-MB-435 = test system: MDA-MB-435
# SK-OV-3 ovarian = test system: SK-OV-3 ovarian
# HCT-15 colon = test system: HCT-15 colon
# NCI-H23 lung = test system: NCI-H23 lung
# SK-MEL-5 melanoma = test system: SK-MEL-5 melanoma
# COLO 205 colon = test system: COLO 205 colon
# RPMI-8226 leukemia = test system: RPMI-8226 leukemia
# MOLT-4 leukemia = test system: MOLT-4 leukemia
# NCI-H522 lung = test system: NCI-H522 lung
# KM12 colon = test system: KM12 colon
# SK-MEL-2 melanoma = test system: SK-MEL-2 melanoma
# SR leukemia = test system: SR leukemia
# CCRF-CEM leukemia = test system: CCRF-CEM leukemia
# SF-539 CNS = test system: SF-539 CNS
# EKVX NSCLC = test system: EKVX NSCLC
# OVCAR-8 ovarian = test system: OVCAR-8 ovarian
# NCI-H460 lung = test system: NCI-H460 lung
# OVCAR-3 ovarian = test system: OVCAR-3 ovarian
# DU-145 prostate = test system: DU-145 prostate
# SN12C renal = test system: SN12C renal
# CAKI-1 renal = test system: CAKI-1 renal
# SW-620 colon = test system: SW-620 colon
# MALME-3M melanoma = test system: MALME-3M melanoma
# SK-MEL-28 melanoma = test system: SK-MEL-28 melanoma
# U251 CNS = test system: U251 CNS
# HCC-2998 colon = test system: HCC-2998 colon
# HT29 colon = test system: HT29 colon
# HS 578T breast = test system: HS 578T breast
# NCI-H226 lung = test system: NCI-H226 lung
# OVCAR-5 ovarian = test system: OVCAR-5 ovarian
# LOX IMVI melanoma = test system: LOX IMVI melanoma
# IGROV1 ovarian = test system: IGROV1 ovarian
# OVCAR-4 ovarian = test system: OVCAR-4 ovarian
# MDA-N = test system: MDA-N
# HL-60(TB) leukemia = test system: HL-60(TB) leukemia
# A498 renal = test system: A498 renal
# UO-31 renal = test system: UO-31 renal
# PC-3 prostate = test system: PC-3 prostate
# SF-268 CNS = test system: SF-268 CNS
# UACC-257 melanoma = test system: UACC-257 melanoma
# T-47D breast = test system: T-47D breast
# SF-295 CNS = test system: SF-295 CNS
# MDA-MB-231 breast = test system: MDA-MB-231 breast
# K-562 leukemia = test system: K-562 leukemia
# 786-0 renal = test system: 786-0 renal
# HOP-92 NSCLC = test system: HOP-92 NSCLC
# MCF7 breast = test system: MCF7 breast
# ACHN renal = test system: ACHN renal
# NCI/ADR-RES ovarian = test system: NCI/ADR-RES ovarian
# SNB-19 CNS = test system: SNB-19 CNS
# A549 NSCLC = test system: A549 NSCLC
# BT-549 breast = test system: BT-549 breast
# RXF 393 renal = test system: RXF 393 renal
# M14 melanoma = test system: M14 melanoma
compound,measurement,setting,value
COc1cccc(-c2nnc3c(-c4ccccc4)nc4ccccc4n23)c1,TGI,TK-10 renal,> 100 µM
same,TGI,HCT-116 colon,> 100 µM
same,TGI,HOP-62 NSCLC,> 100 µM
same,TGI,UACC-62 melanoma,> 100 µM
same,TGI,MDA-MB-435,8.62 µM
same,TGI,SK-OV-3 ovarian,> 100 µM
same,TGI,HCT-15 colon,> 100 µM
same,TGI,NCI-H23 lung,> 100 µM
same,TGI,SK-MEL-5 melanoma,77.6 µM
same,TGI,COLO 205 colon,> 100 µM
same,TGI,RPMI-8226 leukemia,26.4 µM
same,TGI,MOLT-4 leukemia,> 63.8 µM
same,TGI,NCI-H522 lung,22.7 µM
same,TGI,KM12 colon,> 43.7 µM
same,TGI,SK-MEL-2 melanoma,44.3 µM
same,TGI,SR leukemia,> 54.8 µM
same,TGI,CCRF-CEM leukemia,39.1 µM
same,TGI,SF-539 CNS,> 100 µM
same,TGI,EKVX NSCLC,> 100 µM
same,TGI,OVCAR-8 ovarian,> 100 µM
same,TGI,NCI-H460 lung,98.7 µM
same,TGI,OVCAR-3 ovarian,> 100 µM
same,TGI,DU-145 prostate,> 100 µM
same,TGI,SN12C renal,> 100 µM
same,TGI,CAKI-1 renal,> 86.6 µM
same,TGI,SW-620 colon,> 100 µM
same,TGI,MALME-3M melanoma,> 83.7 µM
same,TGI,SK-MEL-28 melanoma,> 100 µM
same,TGI,U251 CNS,> 100 µM
same,TGI,HCC-2998 colon,62.7 µM
same,TGI,HT29 colon,> 100 µM
same,TGI,HS 578T breast,> 100 µM
same,TGI,NCI-H226 lung,> 100 µM
same,TGI,OVCAR-5 ovarian,> 100 µM
same,TGI,LOX IMVI melanoma,> 100 µM
same,TGI,IGROV1 ovarian,> 100 µM
same,TGI,OVCAR-4 ovarian,> 100 µM
same,TGI,MDA-N,14.2 µM
same,TGI,HL-60(TB) leukemia,34 µM
same,TGI,A498 renal,93.4 µM
same,TGI,UO-31 renal,> 100 µM
same,TGI,PC-3 prostate,> 100 µM
same,TGI,SF-268 CNS,> 100 µM
same,TGI,UACC-257 melanoma,> 100 µM
same,TGI,T-47D breast,17.3 µM
same,TGI,SF-295 CNS,> 100 µM
same,TGI,MDA-MB-231 breast,> 100 µM
same,TGI,K-562 leukemia,> 56.5 µM
same,TGI,786-0 renal,> 100 µM
same,TGI,HOP-92 NSCLC,> 100 µM
same,TGI,MCF7 breast,> 100 µM
same,TGI,ACHN renal,> 100 µM
same,TGI,NCI/ADR-RES ovarian,> 100 µM
same,TGI,SNB-19 CNS,> 100 µM
same,TGI,A549 NSCLC,> 100 µM
same,TGI,BT-549 breast,> 100 µM
same,TGI,RXF 393 renal,94.7 µM
same,TGI,M14 melanoma,> 100 µM
